Test results taken from publication PMC5622171 (Nature Communications, 2017).

How the values were obtained:
[1] = test system: LS180 cells with stable exogenous expression of hPXR; assay: CellTiter-Glo cytotoxicity assay; settings: 10 µM SPA70
Method: (§4) For the LS180, SNU-C4 and LS1034 cytotoxicity assays, cells were seeded in a 96-well plate (Corning) at 4000 cells per well. […] Cell viability was assessed using the CellTiter-Glo assay.

HepG2 cells = assay: One- and 3-day cytotoxicity assay; assay type: cell-based, human; settings: HepG2, one- and 3-day
Method: (§1) After the plated had been incubated for 24 or 72 h at 37 °C, the cytotoxicity was determined using a CellTiter-Glo luminescent cell viability assay (Promega). […] The final DMSO concentration was 0.5% for all wells.

HEK293 cells = assay: One- and 3-day cytotoxicity assay; assay type: cell-based, human; settings: HEK293, one- and 3-day
Method: as §1

ZAP70 = target: T1, ZAP70 (Homo sapiens, UniProt P43403); assay: KINOMEscan kinase profiling; assay type: binding; settings: read-out: %Inhibition by 10 μM SPA70
T1 construct: purchased DiscoverX (Ambit Biosciences) KINOMEscan
T1 sequence (P43403 whole entry): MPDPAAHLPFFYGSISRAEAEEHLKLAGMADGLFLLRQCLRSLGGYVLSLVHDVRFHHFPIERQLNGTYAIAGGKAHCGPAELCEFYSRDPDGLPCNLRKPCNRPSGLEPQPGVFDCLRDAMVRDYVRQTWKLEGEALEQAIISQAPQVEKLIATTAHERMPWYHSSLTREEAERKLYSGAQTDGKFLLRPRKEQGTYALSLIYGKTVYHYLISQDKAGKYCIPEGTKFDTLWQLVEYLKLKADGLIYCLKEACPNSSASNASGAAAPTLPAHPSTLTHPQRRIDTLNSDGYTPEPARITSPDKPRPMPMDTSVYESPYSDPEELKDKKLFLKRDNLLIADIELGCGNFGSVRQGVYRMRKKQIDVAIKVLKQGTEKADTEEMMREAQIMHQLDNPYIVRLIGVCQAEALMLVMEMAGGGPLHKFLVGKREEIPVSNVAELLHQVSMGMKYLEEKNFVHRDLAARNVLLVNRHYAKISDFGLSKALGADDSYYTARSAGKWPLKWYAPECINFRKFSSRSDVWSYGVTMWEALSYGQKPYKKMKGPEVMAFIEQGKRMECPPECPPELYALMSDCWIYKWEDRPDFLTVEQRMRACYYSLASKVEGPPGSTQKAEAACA
Outline: (§2)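 KINOMEscan profiling followed a published protocol. Kinases whose inhibition exceeded a set cut-off were then tested in a dilution series beginning at 30 µM.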

CSNK1G2 = target: T2, CSNK1G2 (Homo sapiens, UniProt P78368); assay: KINOMEscan kinase profiling; assay type: binding
T2 construct: purchased DiscoverX (Ambit Biosciences) KINOMEscan
Outline: as §2

IKK-alpha = target: T3, IKK-alpha (Homo sapiens, UniProt O15111); assay: KINOMEscan kinase profiling; assay type: binding; settings: read-out: %Inhibition by 10 μM SPA70
T3 construct: purchased DiscoverX (Ambit Biosciences) KINOMEscan
Outline: as §2

MAP3K1 = target: T4, MAP3K1 (Homo sapiens, UniProt Q13233); assay: KINOMEscan kinase profiling; assay type: binding; settings: read-out: %Inhibition by 10 μM SPA70
T4 construct: purchased DiscoverX (Ambit Biosciences) KINOMEscan
Outline: as §2

GRK1 = target: T5, GRK1 (Homo sapiens, UniProt Q15835); assay: KINOMEscan kinase profiling; assay type: binding; settings: read-out: %Inhibition by 10 μM SPA70
T5 construct: purchased DiscoverX (Ambit Biosciences) KINOMEscan
Outline: as §2

MAP4K3 = target: T6, MAP4K3 (Homo sapiens, UniProt Q8IVH8); assay: KINOMEscan kinase profiling; assay type: binding
T6 construct: purchased DiscoverX (Ambit Biosciences) KINOMEscan
Outline: as §2

ULK3 = target: T7, ULK3 (Homo sapiens, UniProt Q6PHR2); assay: KINOMEscan kinase profiling; assay type: binding
T7 construct: purchased DiscoverX (Ambit Biosciences) KINOMEscan
T7 sequence (Q6PHR2 whole entry): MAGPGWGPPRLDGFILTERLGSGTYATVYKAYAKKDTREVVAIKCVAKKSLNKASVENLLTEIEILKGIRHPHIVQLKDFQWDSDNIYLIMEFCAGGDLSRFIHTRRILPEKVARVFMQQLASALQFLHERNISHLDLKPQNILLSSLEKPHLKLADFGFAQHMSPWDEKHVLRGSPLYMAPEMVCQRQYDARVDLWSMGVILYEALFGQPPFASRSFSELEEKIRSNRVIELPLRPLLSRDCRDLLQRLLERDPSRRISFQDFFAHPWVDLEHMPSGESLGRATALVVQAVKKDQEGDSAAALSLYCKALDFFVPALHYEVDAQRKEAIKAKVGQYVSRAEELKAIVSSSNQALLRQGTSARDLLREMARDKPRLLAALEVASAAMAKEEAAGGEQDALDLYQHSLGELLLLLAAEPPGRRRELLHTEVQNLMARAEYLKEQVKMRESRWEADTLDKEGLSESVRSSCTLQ
Outline: as §2

PRP4 = target: T8, PRP4 (Homo sapiens, UniProt Q13523); assay: KINOMEscan kinase profiling; assay type: binding; settings: read-out: %Inhibition by 10 μM SPA70
T8 construct: purchased DiscoverX (Ambit Biosciences) KINOMEscan
Outline: as §2

BLK = target: T9, BLK (Homo sapiens, UniProt P51451); assay: KINOMEscan kinase profiling; assay type: binding; settings: read-out: %Inhibition by 10 μM SPA70
T9 construct: purchased DiscoverX (Ambit Biosciences) KINOMEscan
T9 sequence (P51451 whole entry): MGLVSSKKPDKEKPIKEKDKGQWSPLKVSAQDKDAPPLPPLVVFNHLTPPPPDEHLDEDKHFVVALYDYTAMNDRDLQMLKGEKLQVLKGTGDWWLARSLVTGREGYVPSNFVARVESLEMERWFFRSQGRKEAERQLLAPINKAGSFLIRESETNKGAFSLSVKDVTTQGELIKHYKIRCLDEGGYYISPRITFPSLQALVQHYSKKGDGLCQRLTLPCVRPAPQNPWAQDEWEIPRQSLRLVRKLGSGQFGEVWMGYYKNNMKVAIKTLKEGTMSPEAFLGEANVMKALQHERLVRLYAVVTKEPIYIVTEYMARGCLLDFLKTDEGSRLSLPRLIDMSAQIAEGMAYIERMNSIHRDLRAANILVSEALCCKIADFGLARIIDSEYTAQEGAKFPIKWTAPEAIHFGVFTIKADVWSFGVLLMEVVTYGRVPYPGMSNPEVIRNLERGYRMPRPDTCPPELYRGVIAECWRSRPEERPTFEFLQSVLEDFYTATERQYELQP
Outline: as §2

EPHA5 = target: T10, EPHA5 (Homo sapiens, UniProt P54756); assay: KINOMEscan kinase profiling; assay type: binding
T10 construct: purchased DiscoverX (Ambit Biosciences) KINOMEscan
Outline: as §2

LRRK2 = target: T11, LRRK2 (Homo sapiens, UniProt Q5S007); assay: KINOMEscan kinase profiling; assay type: binding; settings: read-out: %Inhibition by 10 μM SPA70
T11 construct: purchased DiscoverX (Ambit Biosciences) KINOMEscan
T11 sequence (Q5S007 whole entry): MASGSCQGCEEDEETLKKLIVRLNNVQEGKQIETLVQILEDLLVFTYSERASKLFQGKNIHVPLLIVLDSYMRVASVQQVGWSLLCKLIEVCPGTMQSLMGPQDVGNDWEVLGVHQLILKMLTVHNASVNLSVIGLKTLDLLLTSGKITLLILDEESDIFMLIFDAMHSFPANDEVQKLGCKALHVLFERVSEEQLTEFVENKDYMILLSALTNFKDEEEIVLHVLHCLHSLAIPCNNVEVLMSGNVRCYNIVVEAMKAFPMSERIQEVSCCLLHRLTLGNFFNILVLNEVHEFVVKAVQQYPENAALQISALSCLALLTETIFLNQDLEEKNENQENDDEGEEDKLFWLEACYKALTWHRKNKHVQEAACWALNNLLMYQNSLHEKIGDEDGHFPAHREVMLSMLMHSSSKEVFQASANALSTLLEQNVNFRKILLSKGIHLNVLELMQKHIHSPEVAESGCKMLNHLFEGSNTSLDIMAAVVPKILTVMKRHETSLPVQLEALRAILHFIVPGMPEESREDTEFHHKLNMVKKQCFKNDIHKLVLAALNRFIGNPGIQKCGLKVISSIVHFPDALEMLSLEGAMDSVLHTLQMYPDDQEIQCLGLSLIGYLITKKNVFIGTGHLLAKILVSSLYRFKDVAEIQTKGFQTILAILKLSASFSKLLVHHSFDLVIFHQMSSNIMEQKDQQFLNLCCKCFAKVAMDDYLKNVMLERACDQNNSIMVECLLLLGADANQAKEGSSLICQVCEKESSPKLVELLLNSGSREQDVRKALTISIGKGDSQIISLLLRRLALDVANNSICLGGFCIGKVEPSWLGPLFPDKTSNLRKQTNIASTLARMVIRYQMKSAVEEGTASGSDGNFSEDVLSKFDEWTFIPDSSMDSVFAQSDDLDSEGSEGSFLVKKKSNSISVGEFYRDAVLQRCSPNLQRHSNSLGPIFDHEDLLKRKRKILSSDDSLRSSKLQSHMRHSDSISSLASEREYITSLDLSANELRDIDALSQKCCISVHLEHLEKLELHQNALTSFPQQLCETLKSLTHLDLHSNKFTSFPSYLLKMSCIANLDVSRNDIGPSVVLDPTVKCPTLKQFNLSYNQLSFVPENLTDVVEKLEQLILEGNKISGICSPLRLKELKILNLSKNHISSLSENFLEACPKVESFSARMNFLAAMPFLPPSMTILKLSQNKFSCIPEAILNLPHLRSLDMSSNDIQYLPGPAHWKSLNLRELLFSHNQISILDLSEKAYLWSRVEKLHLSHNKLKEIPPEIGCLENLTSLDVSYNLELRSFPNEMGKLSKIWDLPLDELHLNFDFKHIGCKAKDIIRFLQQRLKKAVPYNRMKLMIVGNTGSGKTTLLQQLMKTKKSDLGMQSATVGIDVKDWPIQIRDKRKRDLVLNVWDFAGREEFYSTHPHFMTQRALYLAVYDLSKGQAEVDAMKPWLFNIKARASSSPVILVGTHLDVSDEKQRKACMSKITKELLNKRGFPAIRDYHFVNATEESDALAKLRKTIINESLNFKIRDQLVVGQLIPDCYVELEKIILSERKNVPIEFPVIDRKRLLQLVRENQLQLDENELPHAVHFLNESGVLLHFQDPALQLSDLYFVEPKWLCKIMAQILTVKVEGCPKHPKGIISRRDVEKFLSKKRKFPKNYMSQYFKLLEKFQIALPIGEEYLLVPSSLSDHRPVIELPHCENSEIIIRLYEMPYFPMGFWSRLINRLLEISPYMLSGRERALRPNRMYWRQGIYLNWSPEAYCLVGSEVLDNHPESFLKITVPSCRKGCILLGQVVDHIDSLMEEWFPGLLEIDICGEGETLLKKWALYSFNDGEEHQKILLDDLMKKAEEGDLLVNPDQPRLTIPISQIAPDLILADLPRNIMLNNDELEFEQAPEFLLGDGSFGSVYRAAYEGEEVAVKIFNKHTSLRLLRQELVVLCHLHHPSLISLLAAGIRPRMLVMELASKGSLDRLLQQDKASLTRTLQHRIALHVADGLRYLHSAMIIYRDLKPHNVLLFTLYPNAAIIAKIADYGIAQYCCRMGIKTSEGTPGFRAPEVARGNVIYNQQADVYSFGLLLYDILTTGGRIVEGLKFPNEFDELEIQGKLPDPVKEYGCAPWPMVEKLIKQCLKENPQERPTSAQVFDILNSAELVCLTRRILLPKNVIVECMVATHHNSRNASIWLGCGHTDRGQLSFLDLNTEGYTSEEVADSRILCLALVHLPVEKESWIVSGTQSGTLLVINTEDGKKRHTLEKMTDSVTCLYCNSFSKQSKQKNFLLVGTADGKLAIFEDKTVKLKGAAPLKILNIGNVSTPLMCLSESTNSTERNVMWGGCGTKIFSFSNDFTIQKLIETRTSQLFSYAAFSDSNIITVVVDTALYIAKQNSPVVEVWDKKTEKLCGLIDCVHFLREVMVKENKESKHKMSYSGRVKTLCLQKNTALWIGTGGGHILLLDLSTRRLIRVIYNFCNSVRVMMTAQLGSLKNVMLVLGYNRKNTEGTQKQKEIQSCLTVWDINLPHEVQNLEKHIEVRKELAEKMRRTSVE
Outline: as §2

PDPK1 = target: T12, PDPK1 (Homo sapiens, UniProt O15530); assay: KINOMEscan kinase profiling; assay type: binding; settings: read-out: %Inhibition by 10 μM SPA70
T12 construct: purchased DiscoverX (Ambit Biosciences) KINOMEscan
Outline: as §2

FRK = target: T13, FRK (Homo sapiens, UniProt P42685); assay: KINOMEscan kinase profiling; assay type: binding; settings: read-out: %Inhibition by 10 μM SPA70
T13 construct: purchased DiscoverX (Ambit Biosciences) KINOMEscan
T13 sequence (P42685 whole entry): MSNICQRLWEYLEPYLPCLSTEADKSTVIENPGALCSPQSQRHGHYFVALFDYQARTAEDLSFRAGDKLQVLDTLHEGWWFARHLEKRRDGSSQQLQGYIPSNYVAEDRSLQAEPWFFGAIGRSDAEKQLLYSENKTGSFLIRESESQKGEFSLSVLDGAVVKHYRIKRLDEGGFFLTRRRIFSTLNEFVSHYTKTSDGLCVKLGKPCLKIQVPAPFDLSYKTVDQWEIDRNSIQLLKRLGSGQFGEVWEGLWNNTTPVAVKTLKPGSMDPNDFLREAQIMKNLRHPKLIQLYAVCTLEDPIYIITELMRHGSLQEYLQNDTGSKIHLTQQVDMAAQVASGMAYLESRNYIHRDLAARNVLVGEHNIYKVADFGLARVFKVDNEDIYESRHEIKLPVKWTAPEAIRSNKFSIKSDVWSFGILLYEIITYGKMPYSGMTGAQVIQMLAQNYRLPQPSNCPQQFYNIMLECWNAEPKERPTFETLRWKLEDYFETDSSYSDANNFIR
Outline: as §2

LTK = target: T14, LTK (Homo sapiens, UniProt P29376); assay: KINOMEscan kinase profiling; assay type: binding; settings: read-out: %Inhibition by 10 μM SPA70
T14 construct: purchased DiscoverX (Ambit Biosciences) KINOMEscan
Outline: as §2

CDK4-cyclinD3 = target: T15, CDK4-cyclinD3 (Homo sapiens, UniProt P11802); assay: KINOMEscan kinase profiling; assay type: binding; settings: read-out: %Inhibition by 10 μM SPA70
T15 construct: purchased DiscoverX (Ambit Biosciences) KINOMEscan
Outline: as §2

PKN1 = target: T16, PKN1 (Homo sapiens, UniProt Q16512); assay: KINOMEscan kinase profiling; assay type: binding; settings: read-out: %Inhibition by 10 μM SPA70
T16 construct: purchased DiscoverX (Ambit Biosciences) KINOMEscan
Outline: as §2

FGFR1 = target: T17, FGFR1 (Homo sapiens, UniProt P11362); assay: KINOMEscan kinase profiling; assay type: binding; settings: read-out: %Inhibition by 10 μM SPA70
T17 construct: purchased DiscoverX (Ambit Biosciences) KINOMEscan
Outline: as §2

STK39 = target: T18, STK39 (Homo sapiens, UniProt Q9UEW8); assay: KINOMEscan kinase profiling; assay type: binding; settings: read-out: %Inhibition by 10 μM SPA70
T18 construct: purchased DiscoverX (Ambit Biosciences) KINOMEscan
Outline: as §2

p38-beta = target: T19, p38-beta (Homo sapiens, UniProt Q15759); assay: KINOMEscan kinase profiling; assay type: binding; settings: read-out: %Inhibition by 10 μM SPA70
T19 construct: purchased DiscoverX (Ambit Biosciences) KINOMEscan
Outline: as §2

TNK2 = target: T20, TNK2 (Homo sapiens, UniProt Q07912); assay: KINOMEscan kinase profiling; assay type: binding; settings: read-out: %Inhibition by 10 μM SPA70
T20 construct: purchased DiscoverX (Ambit Biosciences) KINOMEscan
Outline: as §2

BMPR2 = target: T21, BMPR2 (Homo sapiens, UniProt Q13873); assay: KINOMEscan kinase profiling; assay type: binding
T21 construct: purchased DiscoverX (Ambit Biosciences) KINOMEscan
Outline: as §2

CTK = target: T22, CTK (Homo sapiens, UniProt P42679); assay: KINOMEscan kinase profiling; assay type: binding; settings: read-out: %Inhibition by 10 μM SPA70
T22 construct: purchased DiscoverX (Ambit Biosciences) KINOMEscan
Outline: as §2

PKMYT1 = target: T23, PKMYT1 (Homo sapiens, UniProt Q99640); assay: KINOMEscan kinase profiling; assay type: binding
T23 construct: purchased DiscoverX (Ambit Biosciences) KINOMEscan
Outline: as §2

PIK3C2B = target: T24, PIK3C2B (Homo sapiens, UniProt O00750); assay: KINOMEscan kinase profiling; assay type: binding; settings: read-out: %Inhibition by 10 μM SPA70
T24 construct: purchased DiscoverX (Ambit Biosciences) KINOMEscan
Outline: as §2

hPXR with TIF2 = target: T25, hPXR with TIF2 (Homo sapiens, UniProt O75469); assay: Mammalian two-hybrid assay; assay type: cell-based; settings: LS180 cells; SPA70 10 µM, SJB7 4 µM
T25 construct: expressed in transfected cells; host or cells: LS180
From the text: (§3) The mammalian two-hybrid assay method has been described previously. Briefly, the CheckMate mammalian two-hybrid system (Promega) was used to evaluate the association between hPXR and its co-regulators. LS180 cells were co-transfected with an hPXR plasmid (pACT-hPXR, pACT-hPXRM429A or pACT-hPXRF429A), a coregulator plasmid (pBIND-SRC-1, pBIND-TIF2, pBIND-SMRTτ [amino acids 2077–2471], or pBIND-mNCoR [amino acids 1958–2401]), and a GAL4 firefly luciferase reporter plasmid (pG5-luc). The Renilla luciferase is constitutively expressed from the pBIND vector, and served as an internal transfection control. The activity of the firefly and Renilla luciferase was measured by using the Dual-Glo Luciferase Assay (Promega), and the relative luciferase activity of pG5-luc was determined by normalizing the activity of firefly luciferase to that of Renilla luciferase.

hPXR with SRC-1 = target: T26, hPXR with SRC-1 (Homo sapiens, UniProt O75469); assay: Mammalian two-hybrid assay; assay type: cell-based; settings: LS180 cells; SPA70 10 µM, SJB7 4 µM
T26 construct: expressed in transfected cells; host or cells: LS180
From the text: as §3

SNU-C4 cells = assay: CellTiter-Glo cytotoxicity assay; settings: 10 µM SPA70
Method: as §4

hPXR–NCoR = target: T27, hPXR–NCoR (Homo sapiens, UniProt O75469); assay type: biochemical
T27 construct: 5 nM GST-hPXR-LBD; purchased Thermo Fisher Scientific
T27 sequence (O75469 146-433 limits assumed): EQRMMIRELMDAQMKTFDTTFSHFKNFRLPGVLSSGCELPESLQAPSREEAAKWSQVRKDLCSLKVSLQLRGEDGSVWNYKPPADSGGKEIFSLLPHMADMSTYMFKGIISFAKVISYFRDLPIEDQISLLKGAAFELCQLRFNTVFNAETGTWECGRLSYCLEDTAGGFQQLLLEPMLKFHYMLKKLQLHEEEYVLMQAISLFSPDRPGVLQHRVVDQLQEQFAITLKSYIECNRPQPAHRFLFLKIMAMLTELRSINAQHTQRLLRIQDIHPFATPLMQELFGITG
T27 sequence (O75376 2256-2278 partner limits assumed): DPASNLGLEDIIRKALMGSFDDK

COc1ccc(OC)c(-n2nnc(S(=O)(=O)c3ccc(C(C)(C)C)cc3)c2C)c1 [SPA70]
Effect on paclitaxel sensitivity of LS180 cells with exogenous hPXR [1]: re-sensitized the cells to paclitaxel
Cytotoxicity (HepG2 cells): marginal cytotoxicity
Cytotoxicity (HEK293 cells): marginal cytotoxicity
inhibition at 10 µM (ZAP70): 22%
%Inhibition by 10 μM SPA70 (CSNK1G2): 0%
inhibition at 10 µM (IKK-alpha): 10%
inhibition at 10 µM (MAP3K1): 0%
inhibition at 10 µM (GRK1): 0%
%Inhibition by 10 μM SPA70 (MAP4K3): 0%
%Inhibition by 10 μM SPA70 (ULK3): 2%
inhibition at 10 µM (PRP4): 0%
inhibition at 10 µM (BLK): 11%
%Inhibition by 10 μM SPA70 (EPHA5): 0%
inhibition at 10 µM (LRRK2): 0%
inhibition at 10 µM (PDPK1): 0%
inhibition at 10 µM (FRK): 0%
inhibition at 10 µM (LTK): 6%
inhibition at 10 µM (CDK4-cyclinD3): 19%
inhibition at 10 µM (PKN1): 0%
inhibition at 10 µM (FGFR1): 0%
inhibition at 10 µM (STK39): 7%
inhibition at 10 µM (p38-beta): 0%
inhibition at 10 µM (TNK2): 0%
%Inhibition by 10 μM SPA70 (BMPR2): 10%
inhibition at 10 µM (CTK): 6%
%Inhibition by 10 μM SPA70 (PKMYT1): 38%
inhibition at 10 µM (PIK3C2B): 0%
Increase of association of hPXR with TIF2 (hPXR with TIF2): did not affect
Increase of association of hPXR with SRC-1 (hPXR with SRC-1): did not affect
Sensitization of SNU-C4 cells to paclitaxel and vincristine (SNU-C4 cells): sensitizing the cells to paclitaxel and vincristine
Effect on hPXR–NCoR interactions (hPXR–NCoR): enhanced the hPXR–NCoR interactions
